Assay results as given in US20240122865A1, “Methods of Protecting RNA” (Pfizer Inc., priority 2021, published 2024).
Values joined by “and” are separate entries in the source; they are usually repeats but may differ in a detail not shown here. Equal values may be shown once.

How the values were obtained:
[1] = tested on: FgenL mRNA construct; assay: Size Exclusion Base Hydrolysis Degradation Assay, FgenL; format: biochemical, Trichoderma atroviride; conditions: 25 mM amino acid; for T0 R1 peak area at 250 nm: FgenL 0.1 mg/mL, 50 mM CAPS, T=0, replicate 1; for T2 Avg, peak area as percentage of T=0 / T2 R1 peak area at 250 nm / T10 Avg, peak area as percentage of T=0 / T10 R1 peak area at 250 nm / T24 Avg, peak area as percentage of T=0 / T24 R1 peak area at 250 nm / T0 Avg, peak area as percentage of T=0: FgenL; for T2 Avg, peak area as percentage of T=0 / T2 R1 peak area at 250 nm / T10 Avg, peak area as percentage of T=0 / T10 R1 peak area at 250 nm / T24 Avg, peak area as percentage of T=0 / T24 R1 peak area at 250 nm: 50 mM CAPS pH 11, room temperature; for T2 Avg, peak area as percentage of T=0 / T2 R1 peak area at 250 nm: 2 hrs; for T2 R1 peak area at 250 nm / T10 R1 peak area at 250 nm / T24 R1 peak area at 250 nm: replicate 1; for T10 Avg, peak area as percentage of T=0 / T10 R1 peak area at 250 nm: 10 hrs; for T24 Avg, peak area as percentage of T=0 / T24 R1 peak area at 250 nm: 24 hrs; for T0 Avg, peak area as percentage of T=0: T=0 (reference)
Method: Basic assay procedure: RNA samples were diluted to 1.0 mg/mL in DNAase/RNAase free water. Amino acids were dissolved in water to a stock solution of 100 mM and a solution of 500 mM CAPS pH 11 was used. The two mRNA constructs tested were FgenL and Chi18. Each individual sample volume was 50 μL. To determine the amount of 1 M NaOH needed to adjust the final pH to 11.0 after the addition of all sample components, the sample volume was increased 100 fold (5 mL), the volume of 1 M NaOH recorded and this value was translated back down to the 50 μL sample volume.
The mRNA and amino acid were allowed to incubate for one hour prior to the addition of CAPS pH 11. All steps of the assay were conducted at room temperature.
Degradation reaction: After the CAPS addition, the samples were injected onto the Waters H-Class UPLC system to record the first timepoint, T=O. This resulting chromatogram was processed by integrating the area of absorbance at 250 nm for the mRNA construct. Immediately following this timepoint, the pH was adjusted to 11. Subsequent time points (2 hrs, 10 hrs, and 24 hrs) recorded the Absorbance Units (peak area) at 250 nm as a percentage of the peak area determined at T=O. Integration of the chromatogram for subsequent timepoints was conducted by analyzing the area of absorbance at 250 nm contained within the same time window in which the peak eluted in T=0 for the 100% intact mRNA.

[2] = tested on: HEK-293T cell monolayer; format: cell-based
[3] = tested on: VSV G pseudotyped virus; parameters: species or system BALB/c mice; conditions: mouse

Structure (SMILES)	T0 R1 peak area at 250 nm [1]	T2 Avg, peak area as percentage of T=0 [1] [%]	T2 R1 peak area at 250 nm [1]	T10 Avg, peak area as percentage of T=0 [1] [%]	T10 R1 peak area at 250 nm [1]	T24 Avg, peak area as percentage of T=0 [1] [%]	T24 R1 peak area at 250 nm [1]	T0 Avg, peak area as percentage of T=0 [1] [%]	T0 R1 peak area at 250 nm ([1]; listed as Cys)	T2 R1 peak area at 250 nm ([1]; listed as Cys)	T2 Avg, peak area as percentage of T=0 ([1]; listed as Cys)	T10 R1 peak area at 250 nm ([1]; listed as Cys)	T10 Avg, peak area as percentage of T=0 ([1]; listed as Cys)	IVE of the Tris/Sucrose LNP formulation upon inclusion of glutamic acid [2] [%]	effect on in vitro expression (IVE) of the Tris/Sucrose LNP formulation [2]	stabilization as measured by functional immunogenic response in vivo [3]
C[C@H](N)C(=O)O [Alanine]	17478	44.3	7051	0.0	0	0.0	0	100.0								
N=C(N)NCCC[C@H](N)C(=O)O [Arginine]	14624	0.0	0	0.0	0	0.0	0	100.0								
NC(=O)C[C@H](N)C(=O)O [Asparagine]	14320	35.9	6791	0.0	0	0.0	0	100.0								
N[C@@H](CC(=O)O)C(=O)O [Aspartic acid]	17497	0.0	0	0.0	0	0.0	0	100.0								
N[C@@H](CS)C(=O)O [Cysteine]						0.0	0	100.0	23851 and 18041	17633 and 6085	58.8% and 30.1%	3767 and 0	8.8% and 0.0%			
N[C@@H](CCC(=O)O)C(=O)O [Glutamic acid]	14529	73.9	10330	39.7	8449	0.0	0	100.0						70	improved	significant stabilization
NC(=O)CC[C@H](N)C(=O)O [Glutamine]	15510	25.9	5779	0.0	0	0.0	0	100.0								
N[C@@H](CCC(=O)N[C@@H](CS)C(=O)NCC(=O)O)C(=O)O [Glutathione]	16850	37.7	4627	2.3	0	0.0	0	100.0								
NCC(=O)O [Glycine]	18897	29.3	3657	0.0	0	0.0	0	100.0								
N[C@@H](Cc1c[nH]cn1)C(=O)O [Histidine]	18949	34.5	8325	0.0	0	0.0	0	100.0								
O=C(O)[C@@H]1C[C@@H](O)CN1 [Hydroxyproline]	16626	22.4	5048	0.0	0	0.0	0	100.0								
CC[C@H](C)[C@H](N)C(=O)O [Isoleucine]	14903	7.2	1687	0.0	0	0.0	0	100.0								
CC(C)C[C@H](N)C(=O)O [Leucine]	13599	27.3	4569	0.0	0	0.0	0	100.0								
NCCCC[C@H](N)C(=O)O [Lysine]	17400	0.0	0	0.0	0	0.0	0	100.0								
CSCC[C@H](N)C(=O)O [Methionine]	15213	24.2	3658	0.0	0	0.0	0	100.0								
N[C@@H](Cc1ccccc1)C(=O)O [Phenylalanine]	18152	62.2	12662	1.7	605	0.0	0	100.0								
O=C(O)[C@@H]1CCCN1 [Proline]	17907	16.6	3380	0.0	0	0.0	0	100.0								
N[C@@H](CO)C(=O)O [Serine]	17044	46.6	7928	11.3	0	0.0	0	100.0								
C[C@@H](O)[C@H](N)C(=O)O [Threonine]	17711	47.3	8436	2.6	904	0.0	0	100.0								
N[C@@H](Cc1c[nH]c2ccccc12)C(=O)O [Tryptophan]	15191	30.2	4991	0.0	0	0.0	0	100.0								
N[C@@H](Cc1ccc(O)cc1)C(=O)O [Tyrosine]	22082	64.7	13039	15.0	1912	5.6	912	100.0								
CC(C)[C@H](N)C(=O)O [Valine]	17745	22.8	4305	0.0	0	0.0	0	100.0								
